According to US12415770B2, “Modulators of liver receptor homologue 1 (LRH-1) and uses” (Emory University, priority 2017, dated 2025):
Read-outs that look alike come from different tables or passages of the source.

Experiments:
LRH-1 = molecular target: T1, LRH-1 (Homo sapiens, UniProt O00482); assay: Luciferase reporter assay (SHP-luc) in HeLa cells transfected with full-length LRH-1; assay type: cell-based; conditions: for EC50 / EC50 (μM): HeLa cells, SHP-luc reporter, 24 hours, 0.03-30 μM; for Relative Efficacy: fold increase over baseline (DMSO-treated cells) relative to the fold increase induced by RJW100
T1 construct: The transfected plasmids included full-length LRH-1 in a pCI vector; expressed in transfected cells; host or cells: HeLa
Experimental: EC50 and Relative Activity values were calculated from luciferase reporter assays.

LRH-1 LBD = molecular target: T2, LRH-1 LBD (Homo sapiens, UniProt O00482); assay: Thermofluor (DSF) assay, purified LRH-1 LBD-His protein; assay type: binding; conditions: for ΔTm at 50 µM: read-out: ΔTm (mean +/− SEM) (° C.)
T2 construct: LRH-1 LBD (residues 299-541) in the pMSC7 vector was expressed in BL21 (DE3) pLysS E. coli; made in house; host or cells: E. coli BL21 (DE3) pLysS
Experimental: Thermofluor assays—Purified LRH-1 LBD-His protein (0.2 mg/ml) was incubated overnight with 50 μM of each compound at 4° C. The final DMSO concentration in the reactions was 1%. SYPRO orange dye (Invitrogen) was then added at a 1:1000 dilution. Reactions were heated at a rate of 0.5° C. per minute, using a StepOne Plus Real Time PCR System (ThermoFisher). […] Data were analyzed by first subtracting baseline fluorescence (ligands+SYPRO with no protein) and then fitting the curves using the Bolzman equation (GraphPad Prism, v6) to determine the Tm. […]

[1] = 50 μM compound, relative to DLPC-bound LRH-1

T2 sequence (O00482 299-541): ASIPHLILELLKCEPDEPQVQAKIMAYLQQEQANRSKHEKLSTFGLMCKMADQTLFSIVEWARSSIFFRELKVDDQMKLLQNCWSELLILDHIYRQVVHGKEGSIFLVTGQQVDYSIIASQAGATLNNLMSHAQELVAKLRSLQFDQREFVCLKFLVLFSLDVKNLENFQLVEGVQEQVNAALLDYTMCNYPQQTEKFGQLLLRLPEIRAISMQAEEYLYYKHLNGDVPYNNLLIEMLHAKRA
T1 sequence (O00482 whole entry): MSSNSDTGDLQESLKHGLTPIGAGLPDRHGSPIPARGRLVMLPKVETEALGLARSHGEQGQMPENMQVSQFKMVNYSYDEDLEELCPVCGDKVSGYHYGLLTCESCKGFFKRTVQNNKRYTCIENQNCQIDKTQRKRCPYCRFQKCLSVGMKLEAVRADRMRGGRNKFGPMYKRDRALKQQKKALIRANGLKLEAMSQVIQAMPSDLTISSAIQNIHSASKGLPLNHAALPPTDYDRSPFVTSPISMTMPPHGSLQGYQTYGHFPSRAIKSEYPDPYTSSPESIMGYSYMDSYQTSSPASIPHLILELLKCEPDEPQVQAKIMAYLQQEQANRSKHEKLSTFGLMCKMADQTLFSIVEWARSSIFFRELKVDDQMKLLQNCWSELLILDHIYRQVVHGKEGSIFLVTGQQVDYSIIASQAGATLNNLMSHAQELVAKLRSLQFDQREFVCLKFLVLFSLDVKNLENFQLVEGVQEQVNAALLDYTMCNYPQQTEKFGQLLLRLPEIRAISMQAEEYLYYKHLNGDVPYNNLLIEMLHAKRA

| Compound | EC50 (LRH-1) | LRH-1 activation (LRH-1; WT LRH-1) | Relative Efficacy (LRH-1) | ΔTm (mean +/− SEM) (° C.) (LRH-1 LBD; [1]) | stabilization of LRH-1-ligand complex / Tm shift (LRH-1 LBD; WT LRH-1) | ΔTm at 50 µM (LRH-1 LBD) | EC50 (μM) (LRH-1) | ΔTm at 50 µM (LRH-1 LBD; [1]) |
| --- | --- | --- | --- | --- | --- | --- | --- | --- |
| ((((endo or exo)-5-hexyl-4-phenyl-3a-(1-phenylvinyl)-1, 2, 3, 3a, 6,6a-hexahydropentalen-1-yl)oxy)carbonyl)sulfamic acid [Compound 40-endo] | > 30 µM | increased activation of LRH-1 compared to RJW100 | −0.2 | 1.95 +/− 0.15 °C | greatly stabilized the protein-ligand complex |  |  |  |
| C=C(c1ccccc1)[C@@]12CCC(O)C1CC(CCCCCCCCOP(=O)(OCC)OCC)=C2c1ccccc1 (stereo partly drawn) [Compound 53-endo, (Endo or Exo) diethyl (8-(6-hydroxy-3-phenyl-3a-(1-phenylvinyl)-1,3a,4,5,6,6a-hexahydropentalen-2-yl)octyl)phosphate] |  |  | 1.04 |  |  | < 1 °C |  |  |
| C=C(c1ccccc1)[C@@]12CC[C@H](OC(N)=O)C1CC(CCCCCC)=C2c1ccccc1 (stereo partly drawn) [Compound 29-endo, (Endo or Exo)-5-hexyl-4-phenyl-3a-(1-phenylvinyl)-1,2,3,3a,6,6a-hexahydropentalen-1-yl carbamate] |  |  | 0 |  |  |  | cnc | 2.8 °C |
| C=C(c1ccc(O)cc1)[C@@]12CC[C@@H](O)C1CC(CCCCCC)=C2c1ccccc1 (mixture of isomers) [Compound 23b, (Exo)-5-hexyl-3a-(1-(4-hydroxyphenyl)vinyl)-4-phenyl-1,2,3,3a,6,6a-hexahydropentalen-1-ol] | 5 µM |  | 0.86 |  |  |  |  | < 1 °C |
| C=C(c1ccccc1)[C@@]12CC[C@@H](O)[C@@H]1CC(CCCCCCCCCCC(=O)O)=C2c1ccccc1 (relative stereo) [Compound 12f, 11-(6-exo-hydroxy-3-phenyl-3a-(1-phenylvinyl)-1,3a,4,5,6,6a-hexahydropentalen-2-yl)undecanoic acid] | 0.3 µM |  | 1.74 |  |  |  |  | 2.5 °C |
| C=C(c1ccccc1)[C@@]12CC[C@@H](O)[C@@H]1CC(CCCCCC(=O)O)=C2c1ccccc1 (relative stereo) [Compound 7f, 6-(6-exo-hydroxy-3-phenyl-3a-(1-phenylvinyl)-1,3a,4,5,6,6a-hexahydropentalen-2-yl)hexanoic acid] | 9 µM |  | 2.22 |  |  |  |  | 5.5 °C |
| C=C(c1ccccc1)C12CCC(O)C1CC(CCCCCCCCOP(=O)([O-])OCC[N+](C)(C)C)=C2c1ccccc1 (stereo not drawn) [Compound 9g, 8-(6-exo-hydroxy-3-phenyl-3a-(1-phenylvinyl)-1,3a,4,5,6,6a-hexahydropentalen-2-yl)octyl (2-(trimethylammonio)ethyl) phosphate] | > 30 µM |  | 1.12 |  |  |  |  | 5.6 °C |
| C=C(c1ccccc1)C12CCC(O)C1CC(CCCCCCCCCCCO)=C2c1ccccc1 (stereo not drawn) [Compound 12e, Exo-5-(11-hydroxyundecyl)-4-phenyl-3a-(1-phenylvinyl)-1,2,3,3a,6,6a-hexahydropentalen-1-ol] | 2 µM |  | 0.87 |  |  |  |  | 4.7 °C |
| C=C(c1ccccc1)[C@@]12CC[C@@H](OC(N)=O)C1CC(CCCCCC)=C2c1ccccc1 (stereo partly drawn) [Compound 29-exo, (Endo or Exo)-5-hexyl-4-phenyl-3a-(1-phenylvinyl)-1,2,3,3a,6,6a-hexahydropentalen-1-yl carbamate] |  |  | 0.14 |  |  |  | cnc | 1.54 °C |
| C=C(c1ccccc1)C12CCC(O)C1CC(CCCC(=O)O)=C2c1ccccc1 (stereo not drawn) [Compound 5f, 4-(6-exo-hydroxy-3-phenyl-3a-(1-phenylvinyl)-1,3a,4,5,6,6a-hexahydropentalen-2-yl)butanoic acid] |  |  | 1.43 |  |  |  | cnc | 2.3 °C |
| C=C(c1ccccc1)[C@@]12CC[C@@H](O)[C@@H]1CC(CCCCO)=C2c1ccccc1 (relative stereo) [Compound 5e, Exo-5-(4-hydroxybutyl)-4-phenyl-3a-(1-phenylvinyl)-1,2,3,3a,6,6a-hexahydropentalen-1-ol] | 1.4 µM |  | 0.83 |  |  |  |  | 3.1 °C |
